# Laboratory results published in patent US12171807B2, “Use of bremelanotide in patients with controlled hypertension” (Cosette Pharmaceuticals, Inc., priority 2020, dated 2024).
# Legend:
# [1] = Blood pressure by time post-dose, Bremelanotide 2 mg SC vs placebo; assay type: in vivo; conditions: 2 mg SC (n = 30)
# [2] = Pressor effect in obese women receiving supratherapeutic doses (6.5 mg daily) for 15 days; assay type: in vivo, human; conditions: 15 days at 6.5 mg daily
# [3] = repeat doses of BMT; review of IND 64119; cited from earlier work
# [4] = Repeat dosing ambulatory blood pressure monitoring study, bremelanotide 1.75 mg SC daily for 8 days then randomized withdrawal (days 9 to 16); assay type: in vivo, human; conditions: for mean change (95% CI) in daytime systolic BP: day 8; for Difference from Baseline, daytime diastolic BP at Day 8 / Difference from Baseline, daytime systolic BP at Day 8: BP in mmHg
# Method: The study focusing on the impact of repeat dosing on blood pressure included 127 women treated with bremelanotide 1.75 mg administered subcutaneously (SC) daily for 8 consecutive days, followed by a randomized withdrawal period of 8 additional consecutive days (days 9 to 16) in which study participants were randomized to either remain on bremelanotide 1.75 mg SC daily or placebo SC daily. Ambulatory blood pressure monitoring was performed on baseline day −1 (single blind placebo), day 8 and on day 16. After 8 days of dosing of bremelanotide 1.75 mg SC, the mean changes from baseline in the 24 hour systolic and diastolic BPs (FIG. 1) were below 2 mmHg. Importantly, the upper bound of the 95% confidence interval for the mean changes in daytime systolic BP (a pre-specified outcome) was below 4 mmHg. These increases in BP were accompanied by small to no reductions in the heart rate of 1 beat/minute or less.
# There were 122 (96%) study participants who completed the randomized withdrawal portion of the study. […] In those randomized to placebo, returns toward baseline BP values were observed (generally a 2 mmHg decline from day 8).
# The patient population was comprised of normotensive premenopausal women and included 2 women with a medical history of hypertension on antihypertensive therapy. One subject was being treated for hypertension with Lisinopril. The other subject was being treated for hypertension with chlorthalidone. Both subjects received all 16 injections; 8 doses in the Open-Label Period and 8 doses in the Randomized Withdrawal Period (one subject was randomized to each treatment group). […] The mean changes from Baseline (Day −1) at Day 8 during daytime in these two subjects are shown in the below table. Changes in daytime HR at Day 8 were −1.7 bpm for the subject and −1.4 bpm for the subject.
# In order to better understand the potential effects of the drug in patients with higher BP values at baseline, an exploratory analysis was performed from the trial evaluating those women whose baseline BP was in the 90th percentile (pre-dose systolic BP >124 mmHg) to determine if the pressor response of bremelanotide differed from those study participants whose baseline BP was below the 90th percentile (pre-dose systolic BP <124 mmHg). At day 8, mean changes (95% CI) from the daytime systolic BP in those study participants in the 90th percentile or greater (n=17) at baseline was −0.16 (−2.06, 1.75) mmHg versus 2.03 (1.70, 2.36) mmHg in those whose baseline systolic BP was below the 90th percentile.
# [5] = as above; assay type: in vivo, human; conditions: after 16 days of dosing of bremelanotide 1.75 mg SC
# [6] = Drug-drug interaction study with antihypertensive agents, single dose bremelanotide 1.75 mg SC vs placebo, ambulatory BP monitoring; assay type: in vivo, human
# Method: An additional study evaluated the effects of single doses of bremelanotide 1.75 mg SC and placebo SC in normotensive, healthy women pre-treated with 5 different classes of antihypertensive drugs in a double-blind cross-over design using ambulatory BP monitoring. The washout period between randomized, blinded treatments was 48 hours. This study included both premenopausal and postmenopausal women. There were 15 healthy […] subjects in each panel of the antihypertensive medications with the exception of the beta-blocker metoprolol (n=17). Blood pressures at baseline in the various panels were low normal (24 hour systolic BPs ranging from 109 to 114 mmHg and 24 hour diastolic BPs ranging from 67 to 72 mmHg (FIG. 2). The placebo-corrected changes from baseline in the 24-hour systolic BPs on bremelanotide 1.75 mg SC ranged from 1.7 mmHg on amlodipine to 3.8 mmHg on hydrochlorothiazide; changes in the 24 hour diastolic BPs ranged from 1.8 mmHg on metoprolol to 2.8 mmHg on lisinopril. In 4 of the 5 classes of antihypertensive medications, nighttime BP changes were substantially lower than daytime BP changes. In study participants pre-treated with hydrochlorothiazide 12.5 mg daily, nighttime BPs increased by 5.5/4.5 mmHg. In review of individual subjects in the HCTZ panel, it was noted that 4 study participants had large reductions in nighttime SBP (10-15 mmHg) on placebo while on bremelanotide 4 study participants had large increases in nighttime SBP (10-15 mmHg).
# 1. […] There was an elevation in nighttime BP in patients pre-treated with hydrochlorothiazide 12.5 mg, which has no apparent pharmacologic basis and is like the result of random variability in both the bremelanotide and placebo sub-groups. As noted, there was no similar finding in the 4 other antihypertensive panels.
# [7] = 2 women with history of hypertension on antihypertensive therapy
# [8] = 61 women, 1.75 mg SC for 16 consecutive days
# [9] = following 8 consecutive days of dosing
# [10] = subject treated with Lisinopril
# [11] = subject treated with chlorthalidone
# [12] = subject with hypertension treated with Lisinopril, baseline (Day −1) 105/70 mmHg
# [13] = subject with hypertension treated with chlorthalidone, baseline (Day −1) 121/81 mmHg
# [14] = single dose 1.75 mg SC, pre-treated with hydrochlorothiazide 12.5 mg daily
smiles,measurement,setting,value
"CCCC[C@H](NC(C)=O)C(=O)N[C@H]1CC(=O)NCCCC[C@@H](C(=O)O)NC(=O)[C@H](Cc2c[nH]c3ccccc23)NC(=O)[C@H](CCCN=C(N)N)NC(=O)[C@@H](Cc2ccccc2)NC(=O)[C@H](Cc2cnc[nH]2)NC1=O [bremelanotide, Ac-Nle-cyclo(-Asp-His-D-Phe-Arg-Trp-Lys)-OH]",Diastolic Blood Pressure,[1]; Hour 1 post-dose,"1.00 (−3.13, 5.13)"
same,Systolic Blood Pressure,[1]; Hour 1 post-dose,"2.36 (−2.15, 6.87)"
same,Diastolic Blood Pressure,[1]; Hour 2 post-dose,"1.03 (−2.96, 5.02)"
same,Systolic Blood Pressure,[1]; Hour 2 post-dose,"0.01 (−4.18, 4.20)"
same,Diastolic Blood Pressure,[1]; Hour 3 post-dose,"1.26 (−2.74, 5.26)"
same,Systolic Blood Pressure,[1]; Hour 3 post-dose,"0.84 (−3.55, 5.23)"
same,Diastolic Blood Pressure,[1]; Hour 4 post-dose,"−1.38 (−6.00, 3.24)"
same,Systolic Blood Pressure,[1]; Hour 4 post-dose,"0.38 (−3.13, 3.90)"
same,cumulative effect on blood pressure or heart rate,[2],no evidence for a cumulative effect on blood pressure or heart rate
same,duration of blood pressure effect,[3],at least four hours
same,increases in systolic and diastolic blood pressures,[3],approximately 4 mmHg
same,outlier analysis: systolic BP elevation of >150 mmHg or diastolic BP elevation >95 mmHg lasting for 120 minutes,[4]; 1.75 mg SC daily,1 (0.8%) study participants (%)
same,outlier analysis: systolic BP elevation of >160 mmHg or diastolic BP elevation of >100 mmHg lasting more than 90 minutes,[4]; 1.75 mg SC daily,2 (1.6%) study participants (%)
same,abnormalities on ECG,[4]; [7],neither subject had clinically significant abnormalities on ECG
same,cardiovascular TEAE,[4]; [7],No cardiovascular TEAE were reported
same,intensity of TEAE,[4]; [7],all were mild in intensity
same,increases in 24 hour BP from placebo baseline (Day −1),[4]; [8],< 1 mmHg
same,increases in average daytime BPs from placebo baseline (Day −1),[4]; [8],< 1.5 mmHg
same,cumulative effect on daytime BP or heart rate compared to baseline or day 8,[4]; 16 days of consecutive administration,no cumulative increases in daytime BP or reductions in heart rate
same,reductions in the heart rate,[4]; after 8 days of 1.75 mg SC daily,≤ 1 beat/minute
same,mean change from baseline in 24 hour diastolic BP,"[4]; after 8 days of 1.75 mg SC daily, 127 women",below 2 mmHg
same,mean change (95% CI) in daytime systolic BP,"[4]; baseline BP in the 90th percentile or greater (pre-dose systolic BP >124 mmHg), n=17","−0.16 (−2.06, 1.75) mmHg"
same,mean change (95% CI) in daytime systolic BP,[4]; baseline systolic BP below the 90th percentile,"2.03 (1.70, 2.36) mmHg"
same,time of peak effects on BP post-dose,[4]; [9],3 to 5 h
same,time post-dose by which BP effect attenuated,[4]; [9],≤ 8 h
same,nighttime BP,[4]; following 8 days of consecutive therapy,no increases in nighttime BP
same,complications or symptoms associated with transient stage 2 hypertension levels,[4]; outlier subjects,In none of these subjects were there complications or symptoms
same,Change in daytime HR at Day 8,[4]; [10],−1.7 bpm
same,"Difference from Baseline, daytime diastolic BP at Day 8",[4]; [10],+4 diastolic
same,"Difference from Baseline, daytime systolic BP at Day 8",[4]; [10],+3 systolic;
same,Change in daytime HR at Day 8,[4]; [11],−1.4 bpm
same,"Difference from Baseline, daytime diastolic BP at Day 8",[4]; [11],−4 diastolic
same,"Difference from Baseline, daytime systolic BP at Day 8",[4]; [11],−9 systolic;
same,"Day 8 Daytime BP, diastolic",[4]; [12],74 mmHg
same,"Day 8 Daytime BP, systolic",[4]; [12],108 mmHg
same,"Day 8 Daytime BP, diastolic",[4]; [13],77 mmHg
same,"Day 8 Daytime BP, systolic",[4]; [13],112 mmHg
same,"daytime systolic BP change by baseline BP percentile, trend",[5],Trends were similar
same,large increases in nighttime SBP in individual subjects,[6]; 4 study participants of the HCTZ panel on bremelanotide,10-15 mmHg
same,induction of hypertension by BP increases,"[6]; single dose 1.75 mg SC, healthy women on antihypertensive therapy at steady-state",did not induce hypertension
same,"nighttime BP increase, diastolic",[6]; [14],4.5 mmHg
same,"nighttime BP increase, systolic",[6]; [14],5.5 mmHg
same,placebo-corrected change from baseline in 24-hour systolic BP,"[6]; single dose 1.75 mg SC, women pre-treated with amlodipine",1.7 mmHg
same,placebo-corrected change from baseline in 24-hour systolic BP,"[6]; single dose 1.75 mg SC, women pre-treated with hydrochlorothiazide",3.8 mmHg
same,placebo-corrected change from baseline in 24 hour diastolic BP,"[6]; single dose 1.75 mg SC, women pre-treated with lisinopril",2.8 mmHg
same,placebo-corrected change from baseline in 24 hour diastolic BP,"[6]; single dose 1.75 mg SC, women pre-treated with metoprolol",1.8 mmHg
